Source: patent US8680108B2, “Substituted fused aryl and heteroaryl derivatives as PI3K inhibitors” (Incyte Corporation, priority 2009, dated 2014)

target: T1, PI3Kδ (p110δ/p85α) (Homo sapiens, UniProt O00329); experiment: PI3Kδ scintillation proximity assay; type: biochemical
T1 construct: purchased Millipore (Bedford, Mass.)
Text: Materials: [γ-^33P]ATP (10 mCi/mL) was purchased from Perkin-Elmer (Waltham, Mass.). Lipid kinase substrate, D-myo-Phosphatidylinositol 4,5-bisphosphate (PtdIns(4,5)P2)D (+)-sn-1,2-di-O-octanoylglyceryl, 3-O-phospho linked (PIP2), CAS 204858-53-7, was purchased from Echelon Biosciences (Salt Lake City, Utah). PI3Kδ (p110δ/p85α) was purchased from Millipore (Bedford, Mass.). ATP, MgCl2, DTT, EDTA, MOPS and CHAPS were purchased from Sigma-Aldrich (St. Louis, Mo.). Wheat Germ Agglutinin (WGA) YSi SPA Scintillation Beads was purchased from GE healthcare life sciences (Piscataway, N.J.).
Assay: The kinase reaction was conducted in polystyrene 384-well matrix white plate from Thermo Fisher Scientific in a final volume of 25 μL. Inhibitors were first diluted serially in DMSO and added to the plate wells before the addition of other reaction components. The final concentration of DMSO in the assay was 0.5%. The PI3K assays were carried out at room temperature in 20 mM MOPS, pH 6.7, 10 mM MgCl2, 5 mM DTT and CHAPS 0.03%. Reactions were initiated by the addition of ATP, the final reaction mixture consisted of 20 μM PIP2, 20 μM ATP, 0.2 μCi [γ-^33P] ATP, 4 nM PI3Kδ. Reactions were incubated for 210 minutes and terminated by the addition of 40 μL SPA beads suspended in quench buffer: 150 mM potassium phosphate pH 8.0, 20% glycerol. 25 mM EDTA, 400 μM ATP. The final concentration of SPA beads is 1.0 mg/mL. After the plate sealing, plates were shaken overnight at room temperature and centrifuged at 1800 rpm for 10 minutes, the radioactivity of the product was determined by scintillation counting on Topcount (Perkin-Elmer). IC50 determination was performed by fitting the curve of percent control activity versus the log of the inhibitor concentration using the GraphPad Prism® 3.0 software.

T1 sequence (O00329 whole entry): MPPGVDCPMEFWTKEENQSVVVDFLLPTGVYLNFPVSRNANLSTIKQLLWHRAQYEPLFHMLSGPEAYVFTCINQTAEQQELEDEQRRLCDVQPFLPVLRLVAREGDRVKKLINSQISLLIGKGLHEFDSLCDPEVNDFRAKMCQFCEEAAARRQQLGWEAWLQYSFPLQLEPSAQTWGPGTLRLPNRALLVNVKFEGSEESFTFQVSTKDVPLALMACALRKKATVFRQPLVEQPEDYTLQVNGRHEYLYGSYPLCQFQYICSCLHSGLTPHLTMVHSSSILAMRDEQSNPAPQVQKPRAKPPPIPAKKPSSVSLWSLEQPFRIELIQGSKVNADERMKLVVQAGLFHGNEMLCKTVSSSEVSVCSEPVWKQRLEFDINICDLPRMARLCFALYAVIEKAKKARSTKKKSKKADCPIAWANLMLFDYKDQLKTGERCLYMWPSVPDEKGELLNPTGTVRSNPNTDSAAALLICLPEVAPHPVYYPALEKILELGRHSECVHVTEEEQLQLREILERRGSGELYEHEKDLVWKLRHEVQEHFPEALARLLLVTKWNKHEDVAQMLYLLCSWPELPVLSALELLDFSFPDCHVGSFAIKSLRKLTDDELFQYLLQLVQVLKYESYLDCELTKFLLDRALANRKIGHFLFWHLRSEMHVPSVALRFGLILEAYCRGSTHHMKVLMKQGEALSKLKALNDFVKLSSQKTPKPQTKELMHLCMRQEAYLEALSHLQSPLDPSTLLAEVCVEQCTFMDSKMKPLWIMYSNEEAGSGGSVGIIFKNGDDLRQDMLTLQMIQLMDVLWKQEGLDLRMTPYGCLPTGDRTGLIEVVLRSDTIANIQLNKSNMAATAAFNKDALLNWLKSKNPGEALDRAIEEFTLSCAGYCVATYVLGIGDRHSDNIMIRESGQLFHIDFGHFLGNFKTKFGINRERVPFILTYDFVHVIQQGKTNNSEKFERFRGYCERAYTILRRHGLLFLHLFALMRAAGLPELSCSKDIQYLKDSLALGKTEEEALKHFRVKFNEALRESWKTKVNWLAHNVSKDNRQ
T1 sequence (P27986 whole entry partner): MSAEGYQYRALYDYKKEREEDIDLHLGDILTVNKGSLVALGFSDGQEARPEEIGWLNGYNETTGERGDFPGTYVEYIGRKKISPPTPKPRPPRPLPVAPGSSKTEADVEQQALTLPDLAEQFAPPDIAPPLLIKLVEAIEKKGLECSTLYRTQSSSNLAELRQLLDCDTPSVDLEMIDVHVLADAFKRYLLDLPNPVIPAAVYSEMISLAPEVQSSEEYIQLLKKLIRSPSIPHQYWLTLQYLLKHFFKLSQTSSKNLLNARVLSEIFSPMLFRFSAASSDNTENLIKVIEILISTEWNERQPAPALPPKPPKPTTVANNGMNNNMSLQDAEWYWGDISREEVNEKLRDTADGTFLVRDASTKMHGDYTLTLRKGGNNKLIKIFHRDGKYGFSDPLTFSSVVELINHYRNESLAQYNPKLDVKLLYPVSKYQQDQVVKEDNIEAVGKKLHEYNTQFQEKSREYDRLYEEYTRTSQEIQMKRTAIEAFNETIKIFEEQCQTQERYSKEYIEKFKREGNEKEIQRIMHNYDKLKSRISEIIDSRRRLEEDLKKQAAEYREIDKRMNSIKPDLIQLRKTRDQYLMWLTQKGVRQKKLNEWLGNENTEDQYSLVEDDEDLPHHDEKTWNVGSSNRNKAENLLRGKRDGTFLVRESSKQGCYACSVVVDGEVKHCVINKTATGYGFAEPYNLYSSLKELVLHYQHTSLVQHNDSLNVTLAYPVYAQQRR

Row | IC50 [nM] | SMILES
1 | 100 to 250 | CC(Nc1ncnc2[nH]cnc12)c1cc(Cl)c2cccnc2c1N1CCC(CO)CC1 (centres unmarked) [Example 64, (1-{5-Chloro-7-[1-(9H-purin-6-ylamino)ethyl]quinolin-8-yl}piperidin-4-yl)methanol tris(trifluoroacetate)]
2 | < 50 | CC(Nc1nc(N)nc2[nH]cnc12)c1ccc2ccccc2c1-c1cncc(F)c1 (centres unmarked) [Example 3, N(6)-{1-[1-(5-fluoropyridin-3-yl)-2-naphthyl]ethyl}-9H-purine-2,6-diamine bis-trifluoroacetate]
3 | 250 to 500 | CC(Nc1ncnc2[nH]cnc12)c1ccc2cccnc2c1-c1cccc(F)c1 (centres unmarked) [Example 8, N-{1-[8-(3-fluorophenyl)quinolin-7-yl]ethyl}-9H-purin-6-amine bis-trifluoroacetate]
4 | 100 to 250 | CC(Nc1ncnc2[nH]cnc12)c1cc(Cl)c2cccnc2c1N1CCC(F)CC1 (centres unmarked) [Example 62, N-{1-[5-Chloro-8-(4-fluoropiperidin-1-yl)quinolin-7-yl]ethyl}-9H-purin-6-amine bis(trifluoroacetate)]
5 | 100 to 250 | CC(Nc1ncnc2[nH]cnc12)c1cc(Cl)c2cccnc2c1N1CCC(NS(C)(=O)=O)CC1 (centres unmarked) [Example 81, N-(1-{5-Chloro-7-[1-(9H-purin-6-ylamino)ethyl]quinolin-8-yl}piperidin-4-yl)methanesulfonamide bis(trifluoroacetate)]
6 | < 50 | Cc1cc(C(C)Nc2ncnc3[nH]cnc23)c(-c2cc(F)cc(F)c2)c2nnccc12 (single isomer, unassigned) [Example 38, N-{1-[8-(3,5-difluorophenyl)-5-methylcinnolin-7-yl]ethyl}-9H-purin-6-amine]
7 | 100 to 250 | Cc1nc(C(C)Nc2ncnc3[nH]cnc23)c(-c2cccc(F)c2)c2ccccc12 (centres unmarked) [Example 44, N-{1-[4-(3-Fluorophenyl)-1-methylisoquinolin-3-yl]ethyl}-9H-purin-6-amine]
8 | 50 to 100 | CC(Nc1ncnc2[nH]cnc12)c1cc(C#N)c2cccnc2c1-c1cccc(F)c1 (centres unmarked) [Example 52, 8-(3-fluorophenyl)-7-[1-(9H-purin-6-ylamino)ethyl]quinoline-5-carbonitrile]
9 | > 1000 | CC(Nc1ncnc2[nH]cnc12)c1cc(F)c2ccnnc2c1-c1cccc(F)c1 (single isomer, unassigned) [Example 21, N-{1-[5-Fluoro-8-(3-fluorophenyl)cinnolin-7-yl]ethyl}-9H-purin-6-amine]
10 | < 50 | CC(Nc1ncnc2[nH]cnc12)c1cc(Cl)c2cccnc2c1N1CCN(C(=O)c2ccn(C)n2)CC1 (centres unmarked) [Example 101, N-[1-(5-Chloro-8-{4-[(1-methyl-1H-pyrazol-3-yl)carbonyl]piperazin-1-yl}quinolin-7-yl)ethyl]-9H-purin-6-amine bis(trifluoroacetate)]
11 | 500 to 1000 | CC(Nc1ncnc2[nH]cnc12)c1cc(Cl)c2cccnc2c1N1CCC(F)(F)CC1 (centres unmarked) [Example 47, N-{1-[5-Chloro-8-(4,4-difluoropiperidin-1-yl)quinolin-7-yl]ethyl}-9H-purin-6-amine]
12 | > 1000 | CC(Nc1ncnc2[nH]cnc12)c1cc(Cl)c2ccnnc2c1-c1ccccc1F (single isomer, unassigned) [Example 25, N-{1-[5-Chloro-8-(2-fluorophenyl)cinnolin-7-yl]ethyl}-9H-purin-6-amine]
13 | < 50 | CC(Nc1ncnc2[nH]cnc12)c1cc(Cl)c2cccnc2c1N1CCN(Cc2ccncc2)CC1 (centres unmarked) [Example 74, N-(1-{5-Chloro-8-[4-(pyridin-4-ylmethyl)piperazin-1-yl]quinolin-7-yl}ethyl)-9H-purin-6-amine tris(trifluoroacetate)]
14 | < 50 | CC(Nc1ncnc2[nH]cnc12)c1cc(Cl)c2ccncc2c1-c1cccc(F)c1 (centres unmarked) [Example 56, N-{1-[5-Chloro-8-(3-fluorophenyl)isoquinolin-7-yl]ethyl}-9H-purin-6-amine]
15 | < 50 | Cc1cc(C(=O)N2CCN(c3c(C(C)Nc4ncnc5[nH]cnc45)cc(Cl)c4cccnc34)CC2)no1 (centres unmarked) [Example 99, N-[1-(5-Chloro-8-{4-[(5-methylisoxazol-3-yl)carbonyl]piperazin-1-yl}quinolin-7-yl)ethyl]-9H-purin-6-amine bis(trifluoroacetate)]
16 | < 50 | CC(Nc1ncnc2[nH]cnc12)c1cc(F)c2cccnc2c1N1CCN(C(=O)c2cnn(C)c2)CC1 (centres unmarked) [Example 103, N-[1-(5-Fluoro-8-{4-[(1-methyl-1H-pyrazol-4-yl)carbonyl]piperazin-1-yl}quinolin-7-yl)ethyl]-9H-purin-6-amine bis(trifluoroacetate)]
17 | < 50 | CC(Nc1ncnc2[nH]cnc12)c1cc(Cl)c2cccnc2c1N1CCN(CC(=O)N(C)C)CC1 (centres unmarked) [Example 90, 2-(4-{5-Chloro-7-[1-(9H-purin-6-ylamino)ethyl]quinolin-8-yl}piperazin-1-yl)-N,N-dimethylacetamide tris(trifluoroacetate)]
18 | < 50 | CC(Nc1ncnc2[nH]cnc12)c1ccc2ccccc2c1-c1cncc(F)c1 (centres unmarked) [Example 5, N-{1-[1-(5-fluoropyridin-3-yl)-2-napthyl]ethyl}-9H-purin-6-amine bis-trifluoroacetate]
19 | < 50 | CC(Nc1ncnc2[nH]cnc12)c1cc(Cl)c2cccnc2c1N1CCN(C(=O)c2ccccn2)CC1 (centres unmarked) [Example 95, N-(1-{5-Chloro-8-[4-(pyridin-2-ylcarbonyl)piperazin-1-yl]quinolin-7-yl}ethyl)-9H-purin-6-amine tris(trifluoroacetate)]
20 | < 50 | CC(Nc1ncnc2[nH]cnc12)c1cc(Cl)c2cnn(C)c2c1-c1cc(F)cc(F)c1 (centres unmarked) [Example 107]
21 | 500 to 1000 | COc1ccc(-c2c(C(C)Nc3ncnc4[nH]cnc34)cc(Cl)c3ccnnc23)cc1F (centres unmarked) [Example 41, N-{1-[5-Chloro-8-(3-fluoro-4-methoxyphenyl)cinnolin-7-yl]ethyl}-9H-purin-6-amine]
22 | < 50 | CC(Nc1ncnc2[nH]cnc12)c1cc(Cl)c2cccnc2c1N1CCN(C(=O)N(C)C)CC1 (centres unmarked) [Example 88, 4-{5-Chloro-7-[1-(9H-purin-6-ylamino)ethyl]quinolin-8-yl}-N,N-dimethylpiperazine-1-carboxamide bis(trifluoroacetate)]
23 | 250 to 500 | CC(Nc1ncnc2[nH]cnc12)c1cc(Cl)c2cccnc2c1N1CCCC(F)C1 (centres unmarked) [Example 61, N-{1-[5-Chloro-8-(3-fluoropiperidin-1-yl)quinolin-7-yl]ethyl}-9H-purin-6-amine bis(trifluoroacetate)]
24 | < 50 | CC(Nc1ncnc2[nH]cnc12)c1cc(Cl)c2cccnc2c1N1CCN(C(=O)c2cnccn2)CC1 (centres unmarked) [Example 97, N-(1-{5-Chloro-8-[4-(pyrazin-2-ylcarbonyl)piperazin-1-yl]quinolin-7-yl}ethyl)-9H-purin-6-amine bis(trifluoroacetate)]
25 | < 50 | Cc1noc(C)c1C(=O)N1CCN(c2c(C(C)Nc3ncnc4[nH]cnc34)cc(Cl)c3cccnc23)CC1 (centres unmarked) [Example 100, N-[1-(5-Chloro-8-{4-[(3,5-dimethylisoxazol-4-yl)carbonyl]piperazin-1-yl}quinolin-7-yl)ethyl]-9H-purin-6-amine bis(trifluoroacetate)]
26 | 100 to 250 | CC(Nc1ncnc2[nH]cnc12)c1cc(F)c2ccnnc2c1-c1cccc(F)c1 (centres unmarked) [Example 19, N-{1-[5-Fluoro-8-(3-fluorophenyl)cinnolin-7-yl]ethyl}-9H-purin-6-amine]
